# Data published in patent US20100210518A1, “Peg-lipid conjugates for increasing the solubility of drug compounds” (priority 2009, published 2010).
# Settings: mouse, in vivo, 25 mg/kg, pH 6
# Protocol: Experiments were performed to determine blood levels of Gefitinib formulations after both intravenous and oral dosing. […] Groups of three male mice (B6D2F1) were used for the studies. HPLC-MS analyses were performed on heparinized mouse plasma samples obtained typically at 0 hr, 0.08 hr, 0.5 hr, 1 hr, 2 hr, 4 hr, 7 hr, 16 hr and 24 hr after bolus IV injection. After oral feeding, the analyses were performed at 0 hr, 0.5 hr, 1 hr, 2 hr, 4 hr, 8 hr, 16 hr and 24 hr. To determine the level of each drug, the drug was first isolated from plasma with a sample pre-treatment. Acetonitrile were used to remove proteins in samples. An isocratic HPLC-MS/MS method was then used to separate the drugs from any potential interference. Drug levels were measured by MS detection with a multiple reaction monitoring (MRM) mode. PK data was analyzed using the WinNonlin program (ver. 5.2, Pharsight) compartmental models of analysis.
# The drug was administered orally and the dosing strength was 25 mg/kg. The drug was also administered intravenously and the dosing strength was 25 mg/kg in 15% Cremophor EL® and in 10 mM sodium phosphate buffer (pH 6.0). The AUC (31.3) obtained from the IV administration was used for calculating the relative bioavailability (BA).
substance,measurement,value
"3,4-Di(oleoyloxy)-decaethylene glycol-benzoate [DDGB]",relative bioavailability (BA),56.0%
